Here are results for 25 molecules from patent US7803810B2, “Inhibitors” (Probiodrug AG, priority 2007, dated 2010).

The target of this experiment is glutaminyl cyclase (QC) (Homo sapiens, UniProt Q16769). Briefly: QC inhibitor assay (fluorometric / spectrophotometric QC activity assays with inhibitor added). The conditions noted are these: QC inhibition, 30° C.; for Ki: fit to competitive inhibition. Type of experiment: biochemical. Here is the method:
All measurements were performed with a BioAssay Reader HTS-7000Plus for microplates (Perkin Elmer) at 30° C. QC activity was evaluated fluorometrically using […]. The samples consisted of 0.2 mM fluorogenic substrate, 0.25 U pyroglutamyl aminopeptidase (Unizyme, Horsholm, Denmark) in 0.2 M Tris/HCl, pH 8.0 containing 20 mM EDTA and an appropriately diluted aliquot of QC in a final volume of 250 μl. Excitation/emission wavelengths were 320/410 nm. The assay reactions were initiated by addition of glutaminyl cyclase. QC activity was determined from a standard curve of β-naphthylamine under assay conditions. One unit is defined as the amount of QC catalyzing the formation of 1 μmol pGlu-βNA from H-Gln-βNA per minute under the described conditions.
In a second fluorometric assay, QC was activity determined using H-Gln-AMC as substrate. Reactions were carried out at 30° C. utilizing the NOVOStar reader for microplates (BMG labtechnologies). The samples consisted of varying concentrations of the fluorogenic substrate, 0.1 U pyroglutamyl aminopeptidase (Qiagen) in 0.05 M Tris/HCl, pH 8.0 containing 5 mM EDTA and an appropriately diluted aliquot of QC in a final volume of 250 μl. Excitation/emission wavelengths were 380/460 nm. The assay reactions were initiated by addition of glutaminyl cyclase. QC activity was determined from a standard curve of 7-amino-4-methylcoumarin under assay conditions. The kinetic data were evaluated using GraFit software.
This novel assay was used to determine the kinetic parameters for most of the QC substrates. […] Samples consisted of the respective QC substrate, 0.3 mM NADH, 14 mM α-Ketoglutaric acid and 30 U/ml glutamate dehydrogenase in a final volume of 250 μl. Reactions were started by addition of QC and persued by monitoring of the decrease in absorbance at 340 nm for 8-15 min.
The initial velocities were evaluated and the enzymatic activity was determined from a standard curve of ammonia under assay conditions. All samples were measured at 30° C., using either the […]luor Plus or the Sunrise (both from TECAN) reader for microplates. Kinetic data was evaluated using GraFit software.
For inhibitor testing, the sample composition was the same as described above, except of the putative inhibitory compound added. For a rapid test of QC-inhibition, samples contained 4 mM of the respective inhibitor and a substrate concentration at 1 KM. For detailed investigations of the inhibition and determination of Ki-values, influence of the inhibitor on the auxiliary enzymes was investigated first. […] The inhibitory constant was evaluated by fitting the set of progress curves to the general equation for competitive inhibition using GraFit software.

SMILES strings stand for the structures.

glutaminyl cyclase (QC), sequence (Q16769 29-361): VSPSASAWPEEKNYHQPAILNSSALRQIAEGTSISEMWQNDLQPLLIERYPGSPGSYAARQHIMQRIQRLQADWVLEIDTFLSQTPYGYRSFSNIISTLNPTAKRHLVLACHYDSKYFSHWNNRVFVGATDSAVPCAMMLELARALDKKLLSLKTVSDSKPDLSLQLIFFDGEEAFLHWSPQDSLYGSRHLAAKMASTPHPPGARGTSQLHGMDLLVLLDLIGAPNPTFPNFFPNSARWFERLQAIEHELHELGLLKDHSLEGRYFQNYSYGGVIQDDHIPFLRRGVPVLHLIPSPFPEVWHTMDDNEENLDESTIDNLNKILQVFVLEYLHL

As for `CCCCc1cccn2cncc12` [Example 1, 8-butylH-imidazo[1,5-a]pyridine], the IC50 was determined as 13.2 µM and the affinity corresponds to a Ki of 3700 nM.
`c1ccc(Cc2cccn3cncc23)cc1` [Example 2, 8-benzylH-imidazo[1,5-a]pyridine] returned an IC50 of 18.9 µM and a Ki of 5500 nM.
For `CC(C)Cc1cccn2cncc12` [Example 3, 8-isobutylH-imidazo[1,5-a]pyridine], the IC50 stood at 20 µM and the Ki worked out at 3700 nM.
With `c1ccc(-c2cccn3cncc23)cc1` [Example 4, 8-phenylH-imidazo[1,5-a]pyridine], the IC50 came out at 8.22 µM and the Ki is 1300 nM.
As for `Fc1ccccc1-c1cccn2cncc12` [Example 5, 8-(2-fluorophenyl)H-imidazo[1,5-a]pyridine], it took 20.6 µM to reach half-maximal inhibition (IC50) and affinity was put at a Ki of 3140 nM.
Molecule `Fc1cccc(-c2cccn3cncc23)c1` [Example 6, 8-(3-fluorophenyl)H-imidazo[1,5-a]pyridine] registered an IC50 of 9.71 µM and a Ki of 2020 nM.
The like results for `Fc1ccc(-c2cccn3cncc23)cc1` [Example 7, 8-(4-fluorophenyl)H-imidazo[1,5-a]pyridine] were, in that order, 10.6 µM and 1870 nM.
For the molecule `Clc1ccccc1-c1cccn2cncc12` [Example 8, 8-(2-chlorophenyl)H-imidazo[1,5-a]pyridine], the IC50 came out at 47.7 µM and the Ki is 15200 nM.
The like results for `Clc1cccc(-c2cccn3cncc23)c1` [Example 9, 8-(3-chlorophenyl)H-imidazo[1,5-a]pyridine] were, in that order, 17.2 µM and 2250 nM.
Taken in the same sequence, the figures for `Clc1ccc(-c2cccn3cncc23)cc1` [Example 10, 8-(4-chlorophenyl)H-imidazo[1,5-a]pyridine] were 5.51 µM and 1110 nM.
`COc1ccccc1-c1cccn2cncc12` [Example 12, 8-(2-methoxyphenyl)H-imidazo[1,5-a]pyridine]: 13.6 µM corresponded to half-maximal inhibition (IC50) and the Ki was determined as 3980 nM.
Taken in the same sequence, the figures for `COc1cccc(-c2cccn3cncc23)c1` [Example 13, 8-(3-methoxyphenyl)H-imidazo[1,5-a]pyridine] were 6.19 µM and 1100 nM.
For `c1ccc(COc2ccccc2-c2cccn3cncc23)cc1` [Example 15, 8-(2-(benzyloxy)phenyl)H-imidazo[1,5-a]pyridine], inhibition was half-maximal at 23.6 µM (IC50) and the Ki turned out to be 5380 nM.
The like results for `c1ccc(COc2cccc(-c3cccn4cncc34)c2)cc1` [Example 16, 8-(3-(benzyloxy)phenyl)H-imidazo[1,5-a]pyridine] were, in that order, 7.81 µM and 1480 nM.
`c1ccc(COc2ccc(-c3cccn4cncc34)cc2)cc1` [Example 17, 8-(4-(benzyloxy)phenyl)H-imidazo[1,5-a]pyridine] returned an IC50 of 4.36 µM and a Ki of 750 nM.
In turn, `c1ccc(-c2ccccc2-c2cccn3cncc23)cc1` [Example 18, 8-(biphen-2-yl)H-imidazo[1,5-a]pyridine] displayed an IC50 of 36.5 µM and a Ki of 11000 nM.
As to `c1ccc(-c2cccc(-c3cccn4cncc34)c2)cc1` [Example 19, 8-(biphen-3-yl)H-imidazo[1,5-a]pyridine], the IC50 came to 10.9 µM and affinity was put at a Ki of 2510 nM.
Taken in the same sequence, the figures for `c1ccc(-c2ccc(-c3cccn4cncc34)cc2)cc1` [Example 20, 8-(biphen-4-yl)H-imidazo[1,5-a]pyridine] were 20.6 µM and 2130 nM.
`FC(F)(F)Oc1ccccc1-c1cccn2cncc12` [Example 21, 8-(2-(trifluoromethoxy)phenyl)H-imidazo[1,5-a]pyridine] returned an IC50 of 36.5 µM and a Ki of 14500 nM.
On to `CCOc1ccc(-c2cccn3cncc23)cc1` [Example 22, 8-(4-ethoxyphenyl)H-imidazo[1,5-a]pyridine], for which the IC50 was 14.3 µM and the affinity, expressed as Ki, was 1890 nM.
Taken in the same sequence, the figures for `c1cc(-c2ccc3c(c2)OCO3)c2cncn2c1` [Example 23, 8-(benzo[d][1,3]dioxol-6-yl)H-imidazo[1,5-a]pyridine] were 29.2 µM and 3460 nM.
Regarding `COc1ccc(-c2cccn3cncc23)cc1C` [Example 24, 8-(4-methoxy-3-methylphenyl)H-imidazo[1,5-a]pyridine], the half-inhibitory concentration (IC50) was found to be 26.4 µM and the Ki was determined as 2660 nM.
Taken in the same sequence, the figures for `c1cc(-c2ccc3c(c2)OCCO3)c2cncn2c1` [Example 25, 8-(2,3-dihydrobenzo[b][1,4]dioxin-7-yl)H-imidazo[1,5-a]pyridine] were 9.17 µM and 1190 nM.
Taken in the same sequence, the figures for `COc1ccc(-c2cccn3cncc23)cc1OC` [Example 26, 8-(3,4-dimethoxyphenyl)H-imidazo[1,5-a]pyridine] were 15.4 µM and 9380 nM.
Taken in the same sequence, the figures for `COc1c(C)cc(-c2cccn3cncc23)cc1C` [Example 27, 8-(4-methoxy-3,5-dimethylphenyl)H-imidazo[1,5-a]pyridine] were 27.4 µM and 4920 nM.

The term IC50 denotes the concentration at which inhibition is half-maximal. Read a high IC50 as lower potency. Usually Ki stands for a dissociation constant, usually derived from enzyme kinetics or from competition with a known ligand. A high value points to lower affinity.
